In US20240067617A1 (Albireo AB, priority 2022, published 2024):

How the values were obtained:
hLBAT = biological target: T1, hLBAT (Homo sapiens, UniProt Q14973); test: LBAT (h/m) assay: 3H-taurocholic acid uptake in human LBAT-overexpressing cells; format: cell-based; conditions: 0.3 μM 3H-taurocholic acid + 7.5 μM cold taurocholic acid, 20 minutes at 37° C.
T1 construct: expressed in transfected cells; kept under Geneticin selection
T1 sequence (Q14973 1-349): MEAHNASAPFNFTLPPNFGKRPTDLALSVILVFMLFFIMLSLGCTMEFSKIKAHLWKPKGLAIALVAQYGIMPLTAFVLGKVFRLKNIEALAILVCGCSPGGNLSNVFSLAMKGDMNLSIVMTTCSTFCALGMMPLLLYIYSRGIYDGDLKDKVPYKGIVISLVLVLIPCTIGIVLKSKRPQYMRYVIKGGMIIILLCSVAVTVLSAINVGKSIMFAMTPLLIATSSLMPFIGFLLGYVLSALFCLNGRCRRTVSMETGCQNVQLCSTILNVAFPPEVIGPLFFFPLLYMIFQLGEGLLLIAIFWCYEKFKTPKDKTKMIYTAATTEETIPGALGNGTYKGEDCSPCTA
Experimental: LBAT (h/m) Assay Protocol
20,000 cells (Human or Mouse LBAT-overexpressing cells) were seeded in 96-wells plate (Corning CLS3809) in 100 μL MEM-alpha medium (Gibco 12571-063) supplemented with 10% FBS (Gibco 10438026) containing Geneticin (Gibco 10131-027) (1 mg/mL) and incubated at 37° C. in 5% CO2 for 24 hours. After incubation, media was decanted from the wells and cells were washed two times with 300 μL of basal MEM-alpha medium (FBS-free). After decanting basal MEM-alpha medium each time, plates were tapped against paper towel to ensure maximum removal of residual media. For human LBAT, incubation mix was prepared by adding test inhibitor dilutions (3-fold serial dilution in DMSO (Sigma D2650), 10 points) in MEM-alpha (without FBS) containing 0.3 μM 3H-taurocholic acid (ARC ART-1368) and 7.5 μM cold taurocholic acid (Sigma T4009) (maintaining 0.2% final DMSO concentration). For mouse LBAT, incubation mix was prepared by adding test inhibitor dilutions (3-fold serial dilution in DMSO, 10 points) in MEM-alpha (without FBS) containing 0.3 μM 3H-taurocholic acid and 25 μM cold taurocholic acid maintaining 0.2% final DMSO concentration). 50 μL of incubation mix containing test inhibitors was then added to the wells (in duplicate) and the plates were incubated for 20 minutes in a CO2 incubator at 37° C. After incubation, the reaction was stopped by keeping the plates on ice water mix for 2-3 minutes and then the incubation mix was aspirated completely from the wells. The wells were washed two times with 250 μL of chilled unlabelled 1 mM taurocholic acid dissolved in HEPES (Gibco 15630080)-buffered (10 mM) HBSS (Gibco 14175079) (pH 7.4). The plates were tapped against a paper towel after every wash to ensure maximum removal of blocking buffer.
100 μL of MicroScint-20 (PerkinElmer 6013621) was added to the wells and kept overnight at RT before reading the plates in TopCount NXT™ Microplate Scintillation and Luminescence Counter from PerkinElmer under 3H Test protocol (set at 120 seconds reading time per well, with normal plate orientation).
(§1) Preparation of Test Compound Dilutions
(§2) All test compounds were provided in powder form at RT. 10 mM DMSO stocks of the test compounds were prepared, aliquoted and stored at −20° C. From the 10 mM DMSO stock of the compounds, a 3-fold serial dilution in DMSO was prepared to get a total of 10 dilutions of the test compounds. 0.5 μL of this dilution in DMSO was added to 250 μL of FBS-free basal media containing 3H-taurocholic acid and cold taurocholic acid to prepare the incubation mixture.

hIBAT = biological target: T2, hIBAT (Homo sapiens, UniProt Q12908); test: IBAT (h/m) assay: 3H-taurocholic acid uptake in human IBAT-overexpressing cells; format: cell-based; conditions: 0.25 μM 3H-taurocholic acid + 5 μM cold taurocholic acid, 20 minutes at 37° C., highest test concentration 10 μM
T2 construct: expressed in transfected cells; kept under Puromycin selection
T2 sequence (Q12908 1-348): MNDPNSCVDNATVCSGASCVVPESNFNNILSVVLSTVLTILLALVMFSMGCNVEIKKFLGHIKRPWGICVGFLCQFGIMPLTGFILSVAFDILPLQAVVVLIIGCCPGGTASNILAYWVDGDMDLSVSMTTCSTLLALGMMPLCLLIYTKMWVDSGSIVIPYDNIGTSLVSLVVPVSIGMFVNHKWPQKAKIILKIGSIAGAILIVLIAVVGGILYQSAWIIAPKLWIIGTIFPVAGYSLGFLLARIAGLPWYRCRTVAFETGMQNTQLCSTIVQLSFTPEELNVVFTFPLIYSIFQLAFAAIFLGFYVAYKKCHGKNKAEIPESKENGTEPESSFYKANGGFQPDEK
Experimental: IBAT (h/m) Assay Protocol
10,000 cells (Human or Mouse IBAT-overexpressing cells) were seeded in 96-wells plate (Corning CLS3809) in 200 μL MEM-alpha medium (Gibco 12571-063) supplemented with 10% FBS (Gibco 10438026) containing Puromycin (Gibco A1113803) (10 μg/mL) and incubated at 37° C. in 5% CO2 for 48 hours. After incubation, media was decanted from the wells and cells were washed two times with 300 μL of basal MEM-alpha medium (FBS-free). After decanting basal MEM-alpha medium each time, plates were tapped against paper towel to ensure maximum removal of residual media. Test inhibitor dilutions (highest test concentration being 10 μM, 3-fold serial dilution, 10 points) prepared in DMSO (Sigma D2650) were added in incubation mix (maintaining 0.2% final DMSO concentration) containing 0.25 μM 3H-taurocholic acid (ARC ART-1368) and 5 μM of cold taurocholic acid (Sigma T4009). 50 μL of incubation mix containing test inhibitors was then added to the wells (in duplicate) and the plates were incubated for 20 minutes in a CO2 incubator at 37° C. After incubation, the reaction was stopped by keeping the plates on ice water mix for 2-3 minutes and then the incubation mix was aspirated completely from the wells. The wells were washed two times with 250 μL of chilled unlabelled 1 mM taurocholic acid dissolved in HEPES (Gibco 15630080)-buffered (10 mM) HBSS (Gibco 14175079) (pH 7.4). The plates were tapped against a paper towel after every wash to ensure maximum removal of blocking buffer.
100 μL of MicroScint-20 (PerkinElmer 6013621) was added to the wells and kept overnight at RT before reading the plates in TopCount NXT™ Microplate Scintillation and Luminescence Counter from PerkinElmer under 3H Test protocol (set at 120 seconds reading time per well).
as §1, §2

SMILES	IC50 (hLBAT)	IC50 (hIBAT)
CCCCC1(CC)CN(c2ccccc2)c2cc(SC)c(CSCC(=O)O)cc2S(=O)(=O)N1C (single isomer, unassigned) [21, enantiomer 2]	1.9 µM	> 0.554 µM
CCCCC1CN(c2ccccc2)c2cc(OC)c(CSCC(=O)O)cc2S(=O)(=O)N1C (single isomer, unassigned) [36, enantiomer 2]	0.155 µM	2.75 µM
CCCC[C@@H]1CN(c2ccccc2)c2cc(SC)c(CSCC(=O)O)cc2S(=O)(=O)N1 [Example 50, (R)-2-(((3-butyl-7-(methylthio)-1,1-dioxido-5-phenyl-2,3,4,5-tetrahydro-1,2,5-benzothiadiazepin-8-yl)methyl)thio)acetic acid]	0.05 µM	0.558 µM
CCCCC1(CC)CN(c2ccccc2)c2cc(SC)c(CSC(C)(C)C(=O)O)cc2S(=O)(=O)N1C (centres unmarked) [Example 24]	0.085 µM	> 3.33 µM
CCCCC1CN(c2ccccc2)c2cc(OC)c(CSCC(=O)O)cc2S(=O)(=O)N1C (racemic) [Example 35, 2-(((3-butyl-7-methoxy-2-methyl-1,1-dioxido-5-phenyl-2,3,4,5-tetrahydro-1,2,5-benzothiadiazepin-8-yl)methyl)thio)acetic acid]	0.362 µM	3.11 µM
CCCCC1(C)CN(c2ccccc2)c2cc(OC)c(CSC(C)(C)C(=O)O)cc2S(=O)(=O)C1 (single isomer, unassigned) [42, enantiomer 1]	0.223 µM	0.704 µM
CCCCC1(CC)CN(c2ccccc2)c2cc(SC)c(CSCC(=O)O)cc2S(=O)(=O)C1 (racemic) [Example 1, 2-(((3-butyl-3-ethyl-7-(methylthio)-1,1-dioxido-5-phenyl-2,3,4,5-tetrahydro-1,5-benzothiazepin-8-yl)methyl)thio)acetic acid]	3.82 µM	–

The remaining compounds from weak to strong by IC50 (hIBAT), led by results:

IC50 (hLBAT)	IC50 (hIBAT)	SMILES
0.107 µM	0.558 µM	CCCCC1CN(c2ccc(F)cc2)c2cc(OC)c(CSCC(=O)O)cc2S(=O)(=O)N1C (racemic) [Example 29, 2-(((3-butyl-5-(4-fluorophenyl)-7-methoxy-2-methyl-1,1-dioxido-2,3,4,5-tetrahydro-1,2,5-benzothiadiazepin-8-yl)methyl)thio)acetic acid]
0.034 µM	0.116 µM	CCCCC1CN(c2ccccc2)c2cc(SC)c(CSCC(=O)O)cc2S(=O)(=O)N1C (single isomer, unassigned) [12, enantiomer 2]
0.216 µM	0.088 µM	CCCCC1(CCCC)CN(c2ccccc2)c2cc(SC)c(CSC(C)(C)C(=O)O)cc2S(=O)(=O)C1 [Example 17, 2-(((3,3-Dibutyl-7-(methylthio)-1,1-dioxido-5-phenyl-2,3,4,5-tetrahydro-1,5-benzothiazepin-8-yl)methyl)thio)-2-methylpropanoic acid]
> 1 µM	0.0058 µM	CCCCC1(CC)CN(c2ccccc2)c2cc(S(C)(=O)=O)c(CSCC(=O)O)cc2S(=O)(=O)N1 (single isomer, unassigned) [48, enantiomer 2]
–	0.0032 µM	CCCCC1(CC)CN(c2ccccc2)c2cc(OC)c(CSCC(=O)O)cc2S(=O)(=O)N1 (single isomer, unassigned) [45, enantiomer 2]
–	0.0023 µM	CCCCC1(CC)CN(c2ccccc2)c2cc(OC)c(CSCC(=O)O)cc2S(=O)(=O)C1 (racemic) [Example 13, 2-(((3-Butyl-3-ethyl-7-methoxy-1,1-dioxido-5-phenyl-2,3,4,5-tetrahydro-1,5-benzothiazepin-8-yl)methyl)thio)acetic acid]
–	0.0017 µM	CCCCC1(CC)CN(c2ccccc2)c2cc(SC)c(CSCC(=O)O)cc2S(=O)(=O)N1 (single isomer, unassigned) [10, enantiomer 2]
> 3.33 µM	0.0006 µM	CCCCC1(CCCC)CN(c2ccc(F)cc2)c2cc(OC)c(CSCC(=O)O)cc2S(=O)(=O)C1 [Example 32, 2-(((3,3-dibutyl-5-(4-fluorophenyl)-7-methoxy-1,1-dioxido-2,3,4,5-tetrahydro-1,5-benzothiazepin-8-yl)methyl)thio)acetic acid]
